pIC50: −log10 of the molar value.
Tests used:
U87 = test: 96 hour growth inhibition, U87; assay type: cell-based; settings: Homo sapiens, U-87 MG, U87, GLIOBLASTOMA
Description: (§1) Two compounds were selected from our library of cytotoxic molecules for immunoconjugation since they both have IC50 values in the low nanomolar range. Various tumor cell lines (ATCC) were treated for 96 hours in the presence of increasing concentrations of each compound and the total number of viable cells remaining was determined after 96 hours of exposure. The IC50 value was determined to be the amount of drug required to inhibit the growth of each cell line 50% as compared to vehicle treated cells.

H157 = test: 96 hour growth inhibition, H157; assay type: cell-based; settings: Homo sapiens, NCI-H157, H157, NSCLC
Description: as §1

A549 = test: 96 hour growth inhibition, A549; assay type: cell-based; settings: Homo sapiens, A549, NSCLC
Description: as §1

H187 = test: 96 hour growth inhibition, H187; assay type: cell-based; settings: Homo sapiens, NCI-H187, H187, SCLC
Description: as §1

AGS = test: 96 hour growth inhibition, AGS; assay type: cell-based; settings: Homo sapiens, GASTRIC
Description: as §1

HCT-15 = test: 96 hour growth inhibition, HCT-15; assay type: cell-based; settings: Homo sapiens, HCT-15, COLO-RECTAL
Description: as §1

SK-MEL-28 = test: 96 hour growth inhibition, SK-MEL-28; assay type: cell-based; settings: Homo sapiens, SK-MEL-28, MELANOMA
Description: as §1

CEM = test: 96 hour growth inhibition, CEM; assay type: cell-based; settings: Homo sapiens, CCRF-CEM
Description: as §1
(§2) Another extremely important predictive factor is the ability of these compounds to kill cell lines overexpressing multiple drug resistance (MDR) genes. A very high percentage of cancer patient relapses are due to some form of resistance to traditional chemotherapy. Of these patients, the vast majority express one or more of the MDR genes within the ABC transport gene family. Overexpression of these genes increases the efflux of compounds that are recognized by these pumping systems. […] Onconova's benzyl styryl sulfone compounds are not recognized by the MDR-1 gene and therefore provide an advantage over other highly toxic drugs including but not limited to the taxanes, doxorubicin, etoposide, and vinca-alkaloids. […] MES-SA/Dx5, uterine sarcoma, and […], ovarian, are both classical multidrug resistant cell lines that are cross resistant to the taxanes and anthracyclins. Harker, W G, and Sikic, B. I., Multidrug (Pleiotropic) Resistance In Doxorubicin-Selected Variants Of The Human Sarcoma Cell Line MES-SA, Cancer Res. 45(9):4091-6 (1985). MES-SA/Dx5 and Apr. […] Fujimori, A., et al., Mutation At The Catalytic Site Of Topoisomerase I In CEM/C2, A Human Leukemia Cell Line Resistant To Camptothecin, Cancer Res. 55(6): 1339-46 (1995). ON 01500 and ON 013100, for example, are both extremely active against these resistant cell lines.

K562 = test: 96 hour growth inhibition, K562; assay type: cell-based; settings: Homo sapiens, K562, CML
Description: as §1

Namalwa = test: 96 hour growth inhibition, Namalwa; assay type: cell-based; settings: Burkitt's Lymphoma (B-cell)
Description: as §1

Daudi = test: 96 hour growth inhibition, Daudi; assay type: cell-based; settings: Homo sapiens, Burkitt's Lymphoma (B-cell)
Description: as §1

BT20 = test: growth inhibition, breast carcinoma cell line BT20; assay type: cell-based; settings: Homo sapiens, BT-20; BT20, BREAST (ER−), HER2 ++
Description: as §1
(§3) Certain embodiments of immunoconjugates described herein are targeted to HER2 expressing breast cancer cells. Certain embodiments of immunoconjugates described herein are targeted to multiple myeloma (MM) cell lines expressing the surface antigens CD38 and or CD138. The IC50 value of ON 015100 and ON 013100 was determined for a number of breast cell lines as well as a panel of multiple myeloma cell lines expressing varying levels of each antigen and the data are shown in table (4) and table (5), respectively. […] Two cell lines, SK-BR-3 and BT474, known to express very high levels of HER2 are more than 2 fold more sensitive to ON 013100 as compared to the cell lines which express lower levels of HER2. Marx C., et al., Validated High-Throughput Screening of Drug-Like Small Molecules for Inhibitors of ErbB2 Transcription. Assay Drug Dev. […]

SK-BR-3 = test: growth inhibition, breast carcinoma cell line SK-BR-3; assay type: cell-based; settings: Homo sapiens; SK-BR-3, BREAST (ER−), HER2 ++++
Description: as §1, §3

OPM-2 = test: growth inhibition, multiple myeloma cell line OPM-2; assay type: cell-based; settings: Homo sapiens; OPM-2, multiple myeloma, CD38 + CD138 + CD20 −
Description: as §1
(§4) Pellat-Deceunynk, C., et al., Human Myeloma Cell Lines As A Tool For Studying The Biology Of Multiple Myeloma: A Reappraisal 18 Years After, Blood 86(10):4001-2 (1995); Gooding, R. P., et al., Phenotypic And Molecular Analysis Of Six Human Cell Lines Derived From Patients With Plasma Cell Dyscrasia, British Journal of Haematology 106:669-688 (1999).

NCI-H929 = test: growth inhibition, multiple myeloma cell line NCI-H929; assay type: cell-based; settings: Homo sapiens, CD38 + CD138 + CD20 −
Description: as §1, §4

2008 (PARENTAL) = test: growth inhibition, 2008 (parental); assay type: cell-based; settings: ovarian
Description: as §1, §2

2008/17/4 (RESISTANT) = test: growth inhibition, 2008/17/4 (resistant); assay type: cell-based; settings: for RSIST-ANCE: 2008/17/4 (RESISTANT) versus 2008 (PARENTAL); for pIC50: 2008/17/4 (RESISTANT), ovarian, multidrug resistant
Description: as §1, §2

[1] = test system: Human breast carcinoma (BT20) cells; test: nude mouse xenograft model, BT20; assay type: in vivo; settings: 10 mg/kg by IP injections, Q2Dx3
Description: Human breast carcinoma (BT20) cells were injected subcutaneously into female athymic nude mice (ncr/ncr). […] The average tumor volume and body weights were determined on the indicated days.
BT20 cells were injected in female nude mice. The mice (N=5-8) were treated with ON 01500 (Panel A.) at 10 mg/kg by IP injections or Vehicle alone (DMSO) every other day Q2Dx3.

| SMILES | pIC50 (U87) | pIC50 (H157) | pIC50 (A549) | pIC50 (H187) | pIC50 (AGS) | pIC50 (HCT-15) | pIC50 (SK-MEL-28) | pIC50 (CEM; CEM (PARENTAL)) | pIC50 (CEM; CEM, […], 96 hours) | pIC50 (K562) | pIC50 (Namalwa) | pIC50 (Daudi) | pIC50 (BT20) | pIC50 (SK-BR-3) | pIC50 (OPM-2) | pIC50 (NCI-H929) | pIC50 (2008 (PARENTAL)) | RSIST-ANCE (2008/17/4 (RESISTANT)) | pIC50 (2008/17/4 (RESISTANT)) | weight loss or toxicity [1] |
| --- | --- | --- | --- | --- | --- | --- | --- | --- | --- | --- | --- | --- | --- | --- | --- | --- | --- | --- | --- | --- |
| COc1cc(OC)c(/C=C/S(=O)(=O)Cc2ccc(OC)c(O)c2)c(OC)c1 [ON 013100, (E)-5-((2,4,6-trimethoxystyrylsulfonyl)methyl)-2-methoxyphenol] | 8.15 | 8.15 | 8.00 | 8.52 | 8.30 | 8.15 | 8.15 | 8.40 | 8.40 | 8.40 | 8.52 | 8.52 | 7.10 | 8.40 | 8.40 | 9.00 | 8.30 | 1.3 | 8.22 | – |
| COc1cc(OC)c(/C=C/S(=O)(=O)Cc2ccc(OC)c(N)c2)c(OC)c1 [ON 01500, (E)-2,4,6-trimethoxystyryl-4-methoxy-3-aminobenzylsulfone] | 8.52 | 8.40 | 8.52 | 8.40 | 8.52 | 8.30 | 8.30 | 8.00 | 8.00 | 8.60 | 8.30 | 8.52 | 8.40 | 8.70 | 8.52 | 9.10 | 8.52 | 1 | 8.52 | without any signs of weight loss or toxicity |

From patent publication US8273787B2, “Activated cytotoxic compounds for attachment to targeting molecules for the treatment of mammalian disease conditions” (Onconova Therapeutics, Inc, priority 2006, dated 2012)
